Data taken from patent publication US20050085413A1, “Dimeric pharmaceutical compounds and their use” (priority 2001, published 2005).
In brackets after ≈: the same amount, converted by molar mass.

Legend:
[1] = test system: Enterococcus faecalis ATCC 29212; experiment: Kirby-Bauer disk test, zones of inhibition; type: cell-based; conditions: 30 μg/disk; for zone of inhibition at 30 µg/disc: Enterococcus faecalis, ATCC29212, read-out: diameter of zone of inhibition, Enterococcus faecalis ATCC 29212
Description: (§1) Antibiotic activities were determined using a standard Kirby-Bauer* test and are reported as diameters (in mm) of zones of inhibition for test strains. All compounds were spotted at 30 μg/disk.

[2] = test system: Staphylococcus aureus ATCC 29213; experiment: Kirby-Bauer disk test, zones of inhibition; type: cell-based; conditions: 30 μg/disk; for zone of inhibition at 30 µg/disc: Staphylococcus aureus, ATCC29213, read-out: diameter of zone of inhibition, Staphylococcus aureus ATCC 29213
Description: as §1

[3] = test system: Escherichia coli ATTCC 25922; experiment: Kirby-Bauer disk test, zones of inhibition; type: cell-based; conditions: 30 μg/disk; for zone of inhibition at 30 µg/disc: Escherichia coli, ATTCC25922, read-out: diameter of zone of inhibition, Escherichia coli ATTCC 25922
Description: as §1

[4] = test system: Pseudomonas aeuruginosa ATCC 27853; experiment: Kirby-Bauer disk test, zones of inhibition; type: cell-based; conditions: 30 μg/disk; for zone of inhibition at 30 µg/disc: Pseudomonas, ATCC27853, read-out: diameter of zone of inhibition, Pseudomonas aeuruginosa ATCC 27853
Description: as §1

[5] = in vivo
Description: Rodents were anaesthetised with Ketamine/Domitor mixture according to standard procedures and dosed with compound of interest by the intra-nasal route at a dose volume of approximately 3.0 ml/kg. The rodent is held in the vertical position during dosing of 30 μL per nostril. At different time points, for example, 2, 8, 24, 48 and 168 hours post-dose, levels of compound in the lung tissue are assessed by analytical methods. Any analytical method suitable for detection of this type of compound may be used. The time at which levels of compound fall below the sensitivity of the analytical techniques identified will determine the residency time of the compound in lung tissue.

[6] = test system: A/Panama/2007/99 BVLV008 (H3N2); experiment: Plaque reduction assay (PRA) in MDCK cells; type: cell-based, influenza virus; conditions: Influenza A virus, H3N2, MDCK, plaque numbers reduced by 50%, read-out: EC50 ng/ml PRA A/Pan
[7] = test system: A/New Caledonia/20/99 BVLV008 (H1N1); experiment: Plaque reduction assay (PRA) in MDCK cells; type: cell-based, influenza virus; conditions: Influenza A virus, H1N1, MDCK, plaque numbers reduced by 50%, read-out: EC50 ng/ml PRA A/New
[8] = test system: B/Yamanashi/166/98 BVLV007; experiment: Plaque reduction assay (PRA) in MDCK cells; type: cell-based, influenza virus; conditions: unidentified influenza virus, MDCK, read-out: EC50 ng/ml PRA B/Yam, B/Yamanashi/166/98 BVLV007; plaque numbers reduced by 50%
[9] = test system: A/Victoria/3/75 BVLV017 (H3N2); experiment: Plaque reduction assay (PRA) in MDCK cells; type: cell-based, influenza virus; conditions: Influenza A virus, H3N2, MDCK, plaque numbers reduced by 50%, read-out: EC50 ng/ml PRA A/Vic
B/Hong Kong/5/72 BVLV012 = experiment: Plaque reduction assay (PRA) in MDCK cells; type: cell-based, influenza virus; conditions: MDCK, read-out: EC50 ng/ml PRA B/HongK

Row | Compound | zone of inhibition at 30 µg/disc [1] [mm] | zone of inhibition at 30 µg/disc [2] [mm] | zone of inhibition at 30 µg/disc [3] [mm] | zone of inhibition at 30 µg/disc [4] [mm] | further results
1 | Neomycin [reference compound] | – | – | – | – | diameter of zone of inhibition, Enterococcus faecalis ATCC 29212 [1]: 6.7 mm; diameter of zone of inhibition, Staphylococcus aureus ATCC 29213 [2]: 16.8 mm; diameter of zone of inhibition, Escherichia coli ATTCC 25922 [3]: 14.4 mm; diameter of zone of inhibition, Pseudomonas aeuruginosa ATCC 27853 [4]: 7.1 mm
2 | NCC1OC(OC2C(N)CC(N)C(OC3OC(CN4CCNCC4)C(O)C(N)C3O)C2O)C(N)CC1O (centres unmarked) [Compound 5] | 7.4 | 18.6 | 10.5 | 13.8 | nmole retained per gram of mouse lung after 7 days [5]: 0.8 nmole per gram
3 | NC1CC(O)C(CNC(=O)NCCCCCCCCCCCCNC(=O)NCC2OC(OC3C(N)CC(N)C(OC4OC(CO)C(O)C(N)C4O)C3O)C(N)CC2O)OC1OC1C(N)CC(N)C(OC2OC(CO)C(O)C(N)C2O)C1O (centres unmarked) [Compound 18] | 6.2 | – | 7.6 | 10.4 | nmole retained per gram of mouse lung after 7 days [5]: 6.6 nmole per gram
4 | NCC1OC(OC2C(N)CC(N)C(OC3OC(CN)C(O)C(N)C3O)C2O)C(N)CC1O (centres unmarked) [Compound 2] | 6.3 | 18.2 | 6.3 | 12.8 | –
5 | NCC1OC(OC2C(N)CC(N)C(OC3OC(CN4CCN(C(=O)CCCCCCCCCCCCCC(=O)N5CCCN(CC6OC(OC7C(N)CC(N)C(OC8OC(CN)C(O)CC8N)C7O)C(O)C(N)C6O)C5)CC4)C(O)C(N)C3O)C2O)C(N)CC1O (centres unmarked) [Compound 7] | 6.2 | – | 6.5 | 8.9 | –
6 | NCC1OC(OC2C(N)CC(N)C(OC3OC(CNC(=O)Nc4ccc(Cc5ccc(NC(=O)NCC6OC(OC7C(N)CC(N)C(OC8OC(CN)C(O)CC8N)C7O)C(O)C(N)C6O)cc5)cc4)C(O)C(N)C3O)C2O)C(N)CC1O (centres unmarked) [Compound 13] | 6.5 | 8.6 | 7.1 | 8.9 | –
7 | NCC1OC(OC2C(N)CC(N)C(OC3OC(CN4CCN(CCCCCCCCCCCCN5CCN(CC6OC(OC7C(N)CC(N)C(OC8OC(CN)C(O)CC8N)C7O)C(O)C(N)C6O)CC5)CC4)C(O)C(N)C3O)C2O)C(N)CC1O (centres unmarked) [Compound 20] | 6.2 | – | 7.8 | 7.5 | –
8 | NCC1OC(OC2C(N)CC(N)C(OC3OC(CN4CCN(Cc5cccc(CN6CCN(CC7OC(OC8C(N)CC(N)C(OC9OC(CN)C(O)CC9N)C8O)C(O)C(N)C7O)CC6)c5)CC4)C(O)C(N)C3O)C2O)C(N)CC1O (centres unmarked) [Compound 17] | 6.2 | – | 6.5 | 8.5 | –
9 | NCC1OC(OC2C(N)CC(N)C(OC3OC(COC(=O)NCCCCCCCCCCCCNC(=O)OCC4OC(OC5C(N)CC(N)C(OC6OC(CN)C(O)CC6N)C5O)C(O)C(N)C4O)C(O)C(N)C3O)C2O)C(N)CC1O (centres unmarked) [Compound 1] | 6 | 8.9 | 7 | 6.3 | –
10 | NC[C@H]1O[C@H](O[C@H]2[C@H](O)[C@@H](O[C@H]3O[C@H](CO)[C@@H](O)[C@H](N)[C@H]3O)[C@H](N)C[C@@H]2N)[C@H](O)[C@@H](O)[C@@H]1O [Kanamycin A, reference compound] | – | – | – | – | diameter of zone of inhibition, Enterococcus faecalis ATCC 29212 [1]: 6.7 mm; diameter of zone of inhibition, Staphylococcus aureus ATCC 29213 [2]: 19.1 mm; diameter of zone of inhibition, Escherichia coli ATTCC 25922 [3]: 18.2 mm; diameter of zone of inhibition, Pseudomonas aeuruginosa ATCC 27853 [4]: 6.2 mm
11 | NCC1OC(OC2C(N)CC(N)C(OC3OC(CN4CCN(C(=O)c5ccccc5-c5ccccc5C(=O)N5CCN(CC6OC(OC7C(N)CC(N)C(OC8OC(CN)C(O)CC8N)C7O)C(O)C(N)C6O)CC5)CC4)C(O)C(N)C3O)C2O)C(N)CC1O (centres unmarked) [Compound 8] | 6.2 | – | 11.4 | 12.1 | nmole retained per gram of mouse lung after 7 days [5]: 4.6 nmole per gram
12 | NCC1OC(OC2C(N)CC(N)C(OC3OC(CNCCCCNC(=O)Nc4ccc(Cc5ccc(NC(=O)NCCCCNCC6OC(OC7C(N)CC(N)C(OC8OC(CN)C(O)CC8N)C7O)C(O)C(N)C6O)cc5)cc4)C(O)C(N)C3O)C2O)C(N)CC1O (centres unmarked) [Compound 22] | – | – | – | 6 | –
13 | Cc1cc(C)c(NC(=O)N2CCN(CC3OC(OC4C(N)CC(N)C(OC5OC(CN)C(O)CC5N)C4O)C(O)C(N)C3O)CC2)c(C)c1NC(=O)N1CCN(CC2OC(OC3C(N)CC(N)C(OC4OC(CN)C(O)CC4N)C3O)C(O)C(N)C2O)CC1 (centres unmarked) [Compound 16] | 6.2 | – | 6.5 | 10.1 | nmole retained per gram of mouse lung after 7 days [5]: 2.8 nmole per gram
14 | NCC[C@H](O)C(=O)N[C@@H]1C[C@H](N)[C@@H](O[C@H]2O[C@H](CN)[C@@H](O)[C@H](O)[C@H]2O)[C@H](O)[C@H]1O[C@H]1O[C@H](CO)[C@@H](O)[C@H](N)[C@H]1O [Amikacin, reference compound] | 6.7 | 18.2 | 18.5 | 18.4 | –
15 | NCC1OC(OC2C(N)CC(N)C(OC3OC(CN4CCN(C(=O)Nc5ccc(Cc6ccc(NC(=O)N7CCN(CC8OC(OC9C(N)CC(N)C(OC%10OC(CN)C(O)CC%10N)C9O)C(O)C(N)C8O)CC7)cc6)cc5)CC4)C(O)C(N)C3O)C2O)C(N)CC1O (centres unmarked) [Compound 15] | 6.2 | – | 7.7 | 9 | –
16 | NCC1OC(OC2C(N)CC(N)C(OC3OC(CN4CCN(C(=O)CCC(=O)N5CCN(CC6OC(OC7C(N)CC(N)C(OC8OC(CN)C(O)CC8N)C7O)C(O)C(N)C6O)CC5)CC4)C(O)C(N)C3O)C2O)C(N)CC1O (centres unmarked) [Compound 25] | – | – | – | 6 | –
17 | NC[C@H]1O[C@H](O[C@H]2[C@H](O)[C@@H](O[C@H]3O[C@H](CO)[C@@H](O)[C@H](N)[C@H]3O)[C@H](N)C[C@@H]2N)[C@H](N)C[C@@H]1O [Tobramycin, reference compound] | 15.7 | 26.7 | 18.4 | 24.9 | nmole retained per gram of mouse lung after 7 days [5]: 2.1 nmole per gram
18 | NCC1OC(OC2C(N)CC(N)C(OC3OC(CN4CCN(C(=O)Nc5ccc(NC(=O)N6CCN(CC7OC(OC8C(N)CC(N)C(OC9OC(CN)C(O)CC9N)C8O)C(O)C(N)C7O)CC6)cc5)CC4)C(O)C(N)C3O)C2O)C(N)CC1O (centres unmarked) [Compound 19] | 6.2 | – | 12.1 | 12.8 | –
19 | NCC1OC(OC2C(N)CC(N)C(OC3OC(COC(=O)Nc4ccc(Cc5ccc(NC(=O)OCC6OC(OC7C(N)CC(N)C(OC8OC(CN)C(O)CC8N)C7O)C(O)C(N)C6O)cc5)cc4)C(O)C(N)C3O)C2O)C(N)CC1O (centres unmarked) [Compound 4] | 6 | 9.3 | 7.9 | 9.2 | –
20 | CCOC(=O)C1=C[C@@H](OC(CC)CC)[C@H](NC(C)=O)[C@@H](N)C1 [Oseltamivir] | – | – | – | – | EC50 [6]: 0.3 ng/mL (≈ 0.00096 µM); EC50 [7]: 0.23 ng/mL (≈ 0.000736 µM); EC50 [8]: 0.7 ng/mL (≈ 0.00224 µM); EC50 [9]: 0.11 ng/mL (≈ 0.000352 µM); EC50 (B/Hong Kong/5/72 BVLV012): 32 ng/mL (≈ 0.102 µM)
21 | NC12CC3CC(CC(C3)C1)C2 [Amantadine] | – | – | – | – | EC50 [6]: 157 ng/mL (≈ 1.04 µM); EC50 [7]: 11 ng/mL (≈ 0.0727 µM); EC50 [8]: 2060 ng/mL (≈ 13.6 µM); EC50 [9]: 220 ng/mL (≈ 1.45 µM); EC50 (B/Hong Kong/5/72 BVLV012): > 10000 ng/mL
